Values after ≈ are worked out from the molar mass of the structure shown.
Columns and labels:
A549 = assay: In vitro cytotoxicity against human lung carcinoma (A-549) cell line; assay type: functional; conditions: read-out: ED50 (the source's name)
HCT-8 = assay: In vitro cytotoxicity against human ileocecal carcinoma (HCT-8) cell line; assay type: functional; conditions: for EC50: read-out: ED50 (the source's name)
HOS = assay: In vitro cytotoxicity against human osteosarcoma (Hos) cell line; assay type: functional; conditions: for EC50: read-out: ED50 (the source's name)
1A9 = assay: In vitro cytotoxicity against human ovarian cancer (IA9) cell line; assay type: functional; conditions: read-out: ED50 (the source's name)
KB [1] = assay: In vitro cytotoxicity against human P-glycoprotein-expressing epidermoid carcinoma of the nasopharynx (KB-VIN) cell line; assay type: functional; conditions: read-out: ED50 (the source's name)
KB [2] = assay: In vitro cytotoxicity against human epidermoid carcinoma of the nasopharynx (KB) cell line; assay type: functional; conditions: read-out: ED50 (the source's name)
MCF7 = assay: In vitro cytotoxicity against human breast cancer (MCF-7) cell line; assay type: functional; conditions: read-out: ED50 (the source's name)
SK-MEL-2 = assay: In vitro cytotoxicity against human melanoma (SKMEL-2) cell line; assay type: functional; conditions: for EC50: read-out: ED50 (the source's name)
U-87 MG [3] = assay: (§1) In vitro cytotoxicity against human glioblastoma (U-87-MG) cell line; assay type: functional, U-87MG ATCC; parameters: concentration or dose not given beside the values
U-87 MG [4] = assay: as §1; assay type: functional, U-87MG ATCC; conditions: read-out: ED50 (the source's name)

| Structure (SMILES) | EC50 (A549) [µg/mL] | EC50 (HCT-8) [µg/mL] | EC50 (HOS) [µg/mL] | EC50 (1A9) [µg/mL] | EC50 (KB [1]) [µg/mL] | EC50 (KB [2]) [µg/mL] | EC50 (MCF7) [µg/mL] | EC50 (SK-MEL-2) [µg/mL] | Inhibition (U-87 MG [3]) [%] | EC50 (U-87 MG [4]) [µg/mL] | Inhibition (HCT-8) [%] | Inhibition (HOS) [%] | Inhibition (SK-MEL-2) [%] |
| --- | --- | --- | --- | --- | --- | --- | --- | --- | --- | --- | --- | --- | --- |
| Nc1cc2c(cc1C(=O)/C=C/c1ccc(F)cc1)OCO2 | 4.2 (≈ 14.7 µM) | 6.5 (≈ 22.8 µM) | 6 (≈ 21 µM) | 3.5 (≈ 12.3 µM) | 2.2 (≈ 7.71 µM) | 3.1 (≈ 10.9 µM) | 5.1 (≈ 17.9 µM) | 9 (≈ 31.5 µM) | 49 | > 10 |  |  |  |
| COc1cccc(/C=C/C(=O)c2cc3c(cc2N)OCO3)c1 | 0.45 (≈ 1.51 µM) | 1.5 (≈ 5.05 µM) | 2.4 (≈ 8.07 µM) | 0.35 (≈ 1.18 µM) | 0.3 (≈ 1.01 µM) | 0.52 (≈ 1.75 µM) | 0.48 (≈ 1.61 µM) | 2.3 (≈ 7.74 µM) |  | 8 (≈ 26.9 µM) |  |  |  |
| COc1cccc(C2OC2C(=O)c2cc3c(cc2N)OCO3)c1 (stereo unspecified) | 2 (≈ 6.38 µM) | 2.1 (≈ 6.7 µM) | 4.5 (≈ 14.4 µM) | 1.2 (≈ 3.83 µM) | 1.3 (≈ 4.15 µM) | 2 (≈ 6.38 µM) | 1.1 (≈ 3.51 µM) | 9.8 (≈ 31.3 µM) |  | 5 (≈ 16 µM) |  |  |  |
| Nc1cc2c(cc1C(=O)/C=C/c1ccccc1F)OCO2 | 2 (≈ 7.01 µM) | 3 (≈ 10.5 µM) | 4 (≈ 14 µM) | 1.5 (≈ 5.26 µM) | 0.95 (≈ 3.33 µM) | 1.5 (≈ 5.26 µM) | 2.6 (≈ 9.11 µM) | 6.5 (≈ 22.8 µM) |  | 7 (≈ 24.5 µM) |  |  |  |
| Cc1ccccc1C1OC1C(=O)c1ccccc1N (stereo unspecified) | 17 (≈ 67.1 µM) | > 20 | > 20 | 12.5 (≈ 49.3 µM) | 11.5 (≈ 45.4 µM) | 15.5 (≈ 61.2 µM) | 19.5 (≈ 77 µM) | > 20 | 28 | > 20 | 41 | 47 | 45 |
| COc1cccc(/C=C/C(=O)c2ccccc2N)c1 | 1.2 (≈ 4.74 µM) | 4.5 (≈ 17.8 µM) | 2 (≈ 7.9 µM) | 0.8 (≈ 3.16 µM) | 0.3 (≈ 1.18 µM) | 0.65 (≈ 2.57 µM) | 1.3 (≈ 5.13 µM) | 3.5 (≈ 13.8 µM) |  | 5.1 (≈ 20.1 µM) |  |  |  |
| COc1cccc(/C=C/C(=O)c2ccc3c(c2)OCO3)c1 | 18.5 (≈ 65.5 µM) | > 20 | > 20 | 15 (≈ 53.1 µM) | 14 (≈ 49.6 µM) | 18.7 (≈ 66.2 µM) | 19 (≈ 67.3 µM) | > 20 | 20 | > 20 | 28 | 42 | 42 |
| Cc1ccccc1/C=C/C(=O)c1ccccc1N | 3.5 (≈ 14.7 µM) | 9.8 (≈ 41.3 µM) | 4 (≈ 16.9 µM) | 1.2 (≈ 5.06 µM) | 1.25 (≈ 5.27 µM) | 1.35 (≈ 5.69 µM) | 6.1 (≈ 25.7 µM) | 5.1 (≈ 21.5 µM) | 34 | > 10 |  |  |  |
| Nc1cc2c(cc1C(=O)C1OC1c1ccccc1F)OCO2 (stereo unspecified) | 3.5 (≈ 11.6 µM) | 4.8 (≈ 15.9 µM) | 4 (≈ 13.3 µM) | 1.85 (≈ 6.14 µM) | 2.3 (≈ 7.63 µM) | 15.4 (≈ 51.1 µM) | 2.3 (≈ 7.63 µM) | 9.5 (≈ 31.5 µM) |  | 9 (≈ 29.9 µM) |  |  |  |
